Data on 32 compounds can be found in patent US20240034736A1, “HSD17B13 INHIBITORS AND USES THEREOF” (FL2022-001, Inc., priority 2020, published 2024).

A value given as a limit tells only on which side of the number the result lay.

Recombinant human HSD17B13 enzyme, sequence (Q7Z5P4 20-300): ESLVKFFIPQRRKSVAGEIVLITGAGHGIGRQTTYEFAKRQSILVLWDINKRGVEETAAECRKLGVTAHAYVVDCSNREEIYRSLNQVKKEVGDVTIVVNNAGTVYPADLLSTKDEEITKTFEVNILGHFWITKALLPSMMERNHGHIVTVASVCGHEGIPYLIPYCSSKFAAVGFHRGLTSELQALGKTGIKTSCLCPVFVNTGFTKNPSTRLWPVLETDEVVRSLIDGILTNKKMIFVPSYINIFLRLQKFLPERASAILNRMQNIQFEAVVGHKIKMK

The target of the test is Recombinant human HSD17B13 enzyme (Homo sapiens (Human), UniProt Q7Z5P4). The test can be described thus: HSD17b13 NAD(P)H-Glo Biochemical Assay. The note with it: 50 uM estradiol, 1 mM NAD+; read-out: HSD17β13 IC50. As for the experimental part:
Recombinant human HSD17B13 enzyme. Substrate: estradiol (Sigma β-Estradiol E8875), 100 mM in DMSO. […] Assay buffer final concentration: 20 mM Tris pH7.4 with 0.002% Tween-20 and 0.02% BSA. […] Enzymatic activity detected by NAD(P)H-Glo™ Detection System (Promega G9062).
Inhibitor compounds were serially diluted in DMSO and then further diluted in assay buffer to a 10× concentration consisting of 1% DMSO.
HSD17b13 enzyme was diluted in 1× assay buffer to the desired enzyme concentration based on the specific activity of the enzyme lot. 20 uL of diluted enzyme was added to each well along with 2.5 uL of 10× inhibitor solution. Assay plate was incubated at RT for 20 minutes, and then 2.5 uL of a 10× substrate/cofactor mix was added to each well for a final concentration of 50 uM estradiol and 1 mMNAD+. Assay plate was incubated at 37° C. for 3 hours. NAD(P)H-Glo™ Detection System reagents were prepared according to manufacturer's specifications, and 25 uL was added to each well. After incubating for 1 hour at RT, luminescence was measured.
On to `Oc1ccc(F)c(-n2ncc3cc(-c4ccc(O)c(Cl)c4)ccc32)c1` [Compound 1, 2-Chloro-4-(1-(2-fluoro-5-hydroxyphenyl)-1H-indazol-5-yl)phenol], for which the IC50 lay within 1000 to 30000 nM.

Regarding `Oc1cc(-n2ncc3cc(-c4cccc(Cl)c4)ccc32)ccc1F` [Compound 1.01, 5-(5-(3-Chlorophenyl)-1H-indazol-1-yl)-2-fluorophenol], the IC50 fell in the range of 100 to 1000 nM.

On to `COc1ccc(-c2ccc3c(cnn3-c3cc(O)c(F)c(C(F)(F)F)c3)c2)cc1Cl` [Compound 1.02, 5-(5-(3-Chloro-4-methoxyphenyl)-1H-indazol-1-yl)-2-fluoro-3-(trifluoromethyl)phenol], for which the IC50 fell in the range of 100 to 1000 nM.

On to `COc1ccc(-c2ccc3c(cnn3-c3cc(O)c(F)c(F)c3F)c2)cc1Cl` [Compound 1.03, 5-(5-(3-Chloro-4-methoxyphenyl)-1H-indazol-1-yl)-2,3,4-trifluorophenol], for which the IC50 is 100 to 1000 nM.

With `Oc1ccc(-c2ccc3c(cnn3-c3cc(O)c(F)c(C(F)(F)F)c3)c2)cc1Cl` [Compound 1.04, 5-(5-(3-Chloro-4-hydroxyphenyl)-1H-indazol-1-yl)-2-fluoro-3-(trifluoromethyl)phenol], the IC50 was < 100 nM.

For the compound `Oc1ccc(-c2ccc3c(cnn3-c3cc(O)c(F)c(F)c3F)c2)cc1Cl` [Compound 1.05, 5-(5-(3-Chloro-4-hydroxyphenyl)-1H-indazol-1-yl)-2,3,4-trifluorophenol], the IC50 fell in the range of 100 to 1000 nM.

As to `Oc1cc(-n2ccc3cc(-c4ccc(O)c(Cl)c4)ccc32)ccc1F` [Compound 1.06, 2-Chloro-4-(1-(4-fluoro-3-hydroxyphenyl)-1H-indol-5-yl)phenol], the 50% inhibitory concentration (IC50) lay in the range of 100 to 1000 nM.

Take `COc1ccc(-c2ccc3c(cnn3-c3ccc(F)c(O)c3)c2)cc1Cl` [Compound 2, 5-(5-(3-Chloro-4-methoxyphenyl)-1H-indazol-1-yl)-2-fluorophenol]: the half-maximal inhibitory concentration (IC50) was 100 to 1000 nM.

Turning to `O=C(O)Cc1ccc(-c2ccc3c(cnn3-c3ccc(F)c(O)c3)c2)cc1` [Compound 2.01, 2-(4-(1-(4-Fluoro-3-hydroxyphenyl)-1H-indazol-5-yl)phenyl)acetic acid], the IC50 lay within 1000 to 30000 nM.

As for `Oc1cc(F)cc(-n2ncc3cc(-c4ccc(O)c(Cl)c4)ccc32)c1` [Compound 3, 2-Chloro-4-(1-(3-fluoro-5-hydroxyphenyl)-1H-indazol-5-yl)phenol], the IC50 fell in the range of 1000 to 30000 nM.

For `Oc1ccc(-c2ccc3c(cnn3-c3cccc(O)c3F)c2)cc1Cl` [Compound 3.01, 3-(5-(3-Chloro-4-hydroxyphenyl)-1H-indazol-1-yl)-2-fluorophenol], the IC50 was 100 to 1000 nM.

On to `Oc1ccc(-c2ccc3c(cnn3-c3ccc(C(F)(F)F)c(O)c3)c2)cc1Cl` [Compound 3.02, 2-Chloro-4-(1-(3-hydroxy-4-(trifluoromethyl)phenyl)-1H-indazol-5-yl)phenol], for which the IC50 was 1000 to 30000 nM.

On to `Oc1ccc(-c2ccc3c(cnn3-c3cc(O)c(F)c(F)c3)c2)cc1Cl` [Compound 3.03, 5-(5-(3-Chloro-4-hydroxyphenyl)-1H-indazol-1-yl)-2,3-difluorophenol], for which the IC50 lay in the range of 100 to 1000 nM.

For `Oc1cc(-n2ncc3cc(-c4ccc(O)c(Cl)c4)ccc32)cc(C(F)(F)F)c1` [Compound 3.04, 2-Chloro-4-(1-(3-hydroxy-5-(trifluoromethyl)phenyl)-1H-indazol-5-yl)phenol], the IC50 fell in the range of 100 to 1000 nM.

`Oc1cccc(-n2ncc3cc(-c4ccc(O)c(Cl)c4)ccc32)c1` [Compound 3.05, 2-Chloro-4-(1-(3-hydroxyphenyl)-1H-indazol-5-yl)phenol]: the IC50 lay in the range of 1000 to 30000 nM.

Take `Oc1cc(-n2ncc3cc(-c4ccc(O)c(Cl)c4)ccc32)ccc1F` [Compound 4, 2-Chloro-4-(1-(4-fluoro-3-hydroxyphenyl)-1H-indazol-5-yl)phenol]: the IC50 is 100 to 1000 nM.

Regarding `Oc1ccc(-c2ccc3c(cnn3-c3ccc(F)c(O)c3)c2)cc1` [Compound 4.01, 2-Fluoro-5-(5-(4-hydroxyphenyl)-1H-indazol-1-yl)phenol], the IC50 fell in the range of 100 to 1000 nM.

For `CS(=O)(=O)Nc1ccc(-c2ccc3c(cnn3-c3ccc(F)c(O)c3)c2)cc1` [Compound 4.02, N-(4-(1-(4-Fluoro-3-hydroxyphenyl)-1H-indazol-5-yl)phenyl)methanesulfonamide], the IC50 is 100 to 1000 nM.

`Oc1cccc(-c2ccc3c(cnn3-c3ccc(F)c(O)c3)c2)c1` [Compound 4.03, 2-Fluoro-5-(5-(3-hydroxyphenyl)-1H-indazol-1-yl)phenol]: the IC50 lay within 100 to 1000 nM.

As to `CS(=O)(=O)Nc1cccc(-c2ccc3c(cnn3-c3ccc(F)c(O)c3)c2)c1` [Compound 4.04, N-(3-(1-(4-Fluoro-3-hydroxyphenyl)-1H-indazol-5-yl)phenyl)methanesulfonamide], the IC50 was in the range of 1000 to 30000 nM.

For `Cc1nn(-c2ccc(F)c(O)c2)c2ccc(-c3ccc(O)c(Cl)c3)cc12` [Compound 4.05, 2-Chloro-4-(1-(4-fluoro-3-hydroxyphenyl)-3-methyl-1H-indazol-5-yl)phenol], the IC50 was 100 to 1000 nM.

As for `Oc1cc(-n2cc3cc(-c4ccc(O)c(Cl)c4)ccc3n2)ccc1F` [Compound 4.06, 2-Chloro-4-(2-(4-fluoro-3-hydroxyphenyl)-2H-indazol-5-yl)phenol], the IC50 is 100 to 1000 nM.

`Cc1ccc(-c2ccc3c(cnn3-c3ccc(F)c(O)c3)c2)cc1` [Compound 4.07, 2-Fluoro-5-(5-(p-tolyl)-1H-indazol-1-yl)phenol]: the IC50 lay in the range of 100 to 1000 nM.

Turning to `Cc1cccc(-c2ccc3c(cnn3-c3ccc(F)c(O)c3)c2)c1` [Compound 4.08, 2-Fluoro-5-(5-(m-tolyl)-1H-indazol-1-yl)phenol], the IC50 was 1000 to 30000 nM.

As for `Oc1cc(-n2ncc3cc(-c4ccc(Cl)cc4)ccc32)ccc1F` [Compound 4.09, 5-(5-(4-Chlorophenyl)-1H-indazol-1-yl)-2-fluorophenol], the half-inhibitory concentration (IC50) lay in the range of 100 to 1000 nM.

Take `Oc1ccc(-c2ccc3c(cnn3-c3cc(O)c(F)c(F)c3)c2)c(Cl)c1` [Compound 4.10, 5-(5-(2-Chloro-4-hydroxyphenyl)-1H-indazol-1-yl)-2,3-difluorophenol]: the IC50 fell in the range of 100 to 1000 nM.

Consider `Oc1cc(-n2ncc3cc(-c4ccccc4Cl)ccc32)ccc1F` [Compound 4.11, 5-(5-(2-Chlorophenyl)-1H-indazol-1-yl)-2-fluorophenol], for which the IC50 fell in the range of 100 to 1000 nM.

With `Cc1ccccc1-c1ccc2c(cnn2-c2ccc(F)c(O)c2)c1` [Compound 4.12, 2-Fluoro-5-(5-(o-tolyl)-1H-indazol-1-yl)phenol], the concentration for half-maximal inhibition (IC50) was 100 to 1000 nM.

For the compound `Oc1cc(-n2ncc3cc(-c4ccc(O)c(Cl)c4)ncc32)ccc1F` [Compound 4.13, 2-Chloro-4-(1-(4-fluoro-3-hydroxyphenyl)-1H-pyrazolo[3,4-c]pyridine-5-yl)phenol], the IC50 lay in the range of 100 to 1000 nM.

On to `Oc1cc(-n2nc(Cl)c3cc(-c4ccc(O)c(Cl)c4)ccc32)ccc1F` [Compound 4.14, 2-Chloro-4-(3-chloro-1-(4-fluoro-3-hydroxyphenyl)-1H-indazol-5-yl)phenol], for which the IC50 lay in the range of 100 to 1000 nM.

Take `N#Cc1nn(-c2ccc(F)c(O)c2)c2ccc(-c3ccc(O)c(Cl)c3)cc12` [Compound 4.15, 5-(3-Chloro-4-hydroxyphenyl)-1-(4-fluoro-3-hydroxyphenyl)-1H-indazole-3-carbonitrile]: the IC50 was 100 to 1000 nM.

In the case of `Oc1ccc(-c2cc3cnn(-c4cc(O)c(F)c(F)c4)c3cc2Cl)cc1Cl` [Compound 4.16, 5-(6-Chloro-5-(3-chloro-4-hydroxyphenyl)-1H-indazol-1-yl)-2,3-difluorophenol], the IC50 fell in the range of 100 to 1000 nM.
